PMC11902257, “Antiprotozoal Aminosteroids from Pachysandra terminalis” (Molecules, 2025)
Values joined by “and” are separate entries in the source; they are usually repeats but may differ in a detail not shown here. Identical values can stand only once. Like-named read-outs stand apart in the source and are kept apart here.

Tests used:
Assay type in all cases: cell-based
[1] = cytotoxicity against L-6 rat skeletal myoblasts, resazurin
Protocol: Cytotoxicity against L-6 rat skeletal myoblasts: The L6 rat skeletal myoblast cell line used for cytotoxicity tests was obtained from the American Type Culture Collection (ATCC, Manassas, VA, USA) as ATCC-CRL-1458 [50]. The cells were cultivated in RPMI 1640 medium supplemented with 1% L-glutamine (200mM) and 10% fetal bovine serum. Cultures were maintained at 37 °C in an atmosphere of 5% CO2. Assays were performed in 96-well plates, each well containing RPMI 1640 medium supplemented with 1% L-glutamine (200 mM), 10% fetal bovine serum, and 2 × 10^3 L-6 cells/well. Plates were incubated at 37 °C under a 5% CO2 atmosphere for 24 h. Compounds were dissolved in DMSO (10 mg/mL). After 24 h, serial drug dilutions of eleven 3-fold dilution steps covering a range from 100 to 0.002 μg/mL were prepared, and the plates were incubated at 37 °C under 5% CO2 for 70 h. After 70 h incubation, 10 μL of resazurin solution (12.5 mg resazurin in 100 mL 1xPBS) was added per well, and plates were incubated for an additional 2 h. After that, the plates were read with a Spectramax Gemini EM microplate fluorometer (Molecular Devices, San Jose, CA, USA) using an excitation wavelength of 536 nm and an emission wavelength of 588 nm. Data were treated according to [44] (see below). Podophyllotoxin served as a positive control.
(§1) Bioassay data and statistical methods: In all cases, the readout data were plotted in Microsoft Excel. Half-maximal inhibitory concentrations (IC50 values) were calculated from the sigmoidal dose-response curves by linear regression. Two independent replicates of the assay were performed in all cases, and the results were expressed as arithmetic mean ± deviation from the mean.

[2] = system: Trypanosoma brucei rhodesiense (Tbr) STIB900 strain; assay: in vitro antitrypanosomal assay, bloodstream forms, resazurin; conditions: for SI(Tbr): Selectivity index IC50(Cytotox)/IC50(Tbr)
Protocol: Trypanosoma brucei rhodesiense (Tbr): The STIB900 strain is a derivative of the STIB704 strain isolated from a patient in Ifakara, Tanzania, in 1982 [43]. The bloodstream forms were cultivated as axenic culture in HMI-9 medium, supplemented with 15% heat-inactivated horse serum. Cultures were maintained at 37 °C in an atmosphere of 5% CO2. Test compounds were dissolved in DMSO (10 mg/mL), and serial drug dilutions of eleven 3-fold dilution steps covering a range from 100 to 0.002 μg/mL were prepared in a 96-well plate. Bloodstream-form of T. b rhodesiense strain STIB900 (2 × 10^3/well) was added into the wells. After 68 h incubation, 10 μL of resazurin solution (12.5 mg resazurin in 100 mL 1xPBS) was added per well, and plates were incubated for an additional 4 h. Subsequently, the plates were read with a Spectramax Gemini EM microplate fluorometer (Molecular Devices, San Jose, CA, USA) using an excitation wavelength of 536 nm and an emission wavelength of 588 nm. Data were treated according to [44] (see below). Melarsoprol was used as a positive control.
as §1

[3] = system: Plasmodium falciparum (Pf) NF54 strain; assay: in vitro antiplasmodial assay, 3H-hypoxanthine incorporation, erythrocytic stages; conditions: for SI (Pf): Selectivity index IC50(Cytotox)/IC50(Pf)
Protocol: Plasmodium falciparum (Pf): Tests were performed against erythrocytic stages of the drug-sensitive NF54 strain. The NF54 strain was obtained from F. Hoffmann-La Roche Limited (Basel, Switzerland). The strain NF54 was originally derived from a patient living near Schiphol Airport, Amsterdam, who had never left the Netherlands. The assay was performed using a 3H-hypoxanthine incorporation assay. Serial compound dilutions were prepared with the medium as indicated above and then added in 96-well plates to parasite cultures incubated in the medium previously described, consisting of RPMI 1640 supplemented with 0.5% ALBUMAX® II, 25 mM Hepes, 25 mM NaHCO3 (pH 7.3), 0.36 mM hypoxanthine, and 100 μg/mL neomycin. The plates were incubated in a humidified atmosphere at 37 °C, 4% CO2, 3% O2, and 93% N2. After 48 h, 0.25 μCi of 3H-hypoxanthine was added to each well. Incubation was continued under identical conditions for a further 24 h. The plates were then harvested using a Betaplate™ cell harvester (Wallac, Zurich, Switzerland). The red blood cells were transferred onto a glass fiber filter and washed with distilled H2O. After drying, filters were inserted into a plastic foil with 10 mL of scintillation fluid and counted with a Betaplate™ liquid scintillation counter (Wallac, Zurich, Switzerland). Data were treated according to [44] (see below). The positive control was chloroquine.
as §1

[4] = Trypanosoma brucei, pure compounds, tested as mono- or bis-trifluoroacetates where marked, read-out: IC50 Tbr (converted)
[5] = Trypanosoma brucei, values in brackets, calculated with the molecular masses of the corresponding salts, read-out: IC50 Tbr (converted)
[6] = Plasmodium falciparum, NF54, pure compounds, tested as mono- or bis-trifluoroacetates where marked, read-out: IC50 Pf (converted)
[7] = Plasmodium falciparum, NF54, values in brackets, calculated with the molecular masses of the corresponding salts, read-out: IC50 Pf (converted)
[8] = values in brackets, calculated with the molecular masses of the corresponding salts, read-out: IC50 Tbr (converted)
[9] = Plasmodium falciparum, NF54, read-out: IC50 Pf [µg/mL]
[10] = pure compounds, tested as mono- or bis-trifluoroacetates where marked

Structure (SMILES)	IC50 at 70 h [1]	SI(Tbr) ([2]; pure compounds)	IC50 [2, 4] [µg/mL]	IC50 [2, 5] [µM]	IC50 [3, 6] [µg/mL]	IC50 [3, 7] [µM]	SI (Pf) ([3]; pure compounds)	other results
C[C@@H]([C@H]1CC[C@H]2[C@@H]3CC[C@H]4C[C@@H](NC(=O)c5cccnc5)CC[C@]4(C)[C@H]3CC[C@]12C)N(C)C [Compound 4, Epipachysamine B]	5.2 µg/mL and 7.7 µM	3	1.6 ± 0.5	2.4	2.3 ± 0.2	3.4	2	–
C[C@@H]([C@H]1CC[C@H]2[C@@H]3CC=C4C[C@@H](NC(=O)c5cccnc5)CC[C@]4(C)[C@H]3CC[C@]12C)N(C)C [Compound 5, Pactermine A]	5.8 µg/mL and 8.6 µM	3	1.93 ± 0.06	2.85	0.91 ± 0.02	1.34	6	–
CC(=O)N(C)[C@@H](C)[C@H]1CC[C@H]2[C@@H]3CC[C@H]4C[C@@H](N(C)C)CC[C@]4(C)[C@H]3CC[C@]12C [Compound 14, Epipachysamine A]	12 µg/mL and 23 µM	5	2.14 ± 0.05	4.14	18 ± 1	36	0.6	–
C[C@@H]([C@H]1CC[C@H]2[C@@H]3CC[C@H]4C[C@]5(CC[C@]4(C)[C@H]3CC[C@]12C)c1ccccc1C(=O)N5C)N(C)C [Compound 15, Spiropachysine]	7.3 µg/mL and 12.7 µM	3	2.21 ± 0.04	3.83	3 ± 1	6	2	–
CNC1CCC2(C)C3CCC4(C)C(CCC4C(C)N(C)C)C3CCC2C1OC(=O)c1ccccc1 (stereo not drawn) [Compound 7]	10 µg/mL and 15 µM	133	0.079 ± 0.001	0.11	0.45 ± 0.09	0.63	23	IC50 [2, 8]: 0.112 µM
CC(=O)[C@H]1CC[C@H]2[C@@H]3CCC4C[C@@H](N(C)C)CC[C@]4(C)[C@H]3CC[C@]12C (stereo partly drawn) [Compound 9, 3β-Dimethylamino-pregnane-20-one]	–	3	2.21 ± 0.06	4.8	–	–	0.8	IC50 at 70 h ([1]; L6 cells, values in brackets, calculated with the molecular masses of the corresponding salts, read-out: IC50 Cytotox (converted)): 14 µM; IC50 at 70 h ([1]; pure compounds, L6 cells, tested as mono- or bis-trifluoroacetates where marked, read-out: IC50 Cytotox (converted)): 6 ± 2 µg/mL; IC50 ([3]; Plasmodium falciparum, NF54, read-out: IC50 Pf (µM)): 18 µM; IC50 [3, 9]: 8 ± 2 µg/mL
C[C@@H]([C@H]1CC[C@H]2[C@@H]3CC[C@H]4C[C@@H](N(C)C)CC[C@]4(C)[C@H]3CC[C@]12C)N(C)C [Compound 12, N-methyl-desacyl-epipachysamine A]	7 µg/mL and 11 µM	3	2.3 ± 0.2	3.9	2.5 ± 0.3	4.1	3	–
C[C@@H]([C@H]1CC[C@H]2[C@@H]3CC[C@H]4[C@H](O)[C@@H](O)CC[C@]4(C)[C@H]3CC[C@]12C)N(C)C [Compound 11, Terminaline]	28 µg/mL and 60 µM	5	5.9 ± 0.3	12.4	3 ± 1	7	8	–
COc1cc([C@@H]2c3cc4c(cc3[C@H](O)[C@H]3COC(=O)[C@H]23)OCO4)cc(OC)c1OC [Podophyllotoxin, reference compound]	–	–	–	–	–	–	–	IC50 at 70 h ([1]; crude extracts and acid/base fractions, L6 cells, mean of two determinations ± deviation, read-out: IC50 Cytotox (converted)): 0.009 ± 0.001 µg/mL
CCN(CC)CCCC(C)Nc1ccnc2cc(Cl)ccc12 (stereo not drawn) [Chloroquine, reference compound]	–	–	–	–	–	–	–	IC50 ([3]; Plasmodium falciparum, NF54, read-out: IC50 Pf): 0.002 µg/mL; IC50 [3, 9]: 0.002 µg/mL
CC1=CC(=O)CC(C)(C)C1CCC(C)N(C)C (stereo not drawn) [Compound 1]	47 µg/mL and 198 µM	8	6.2 ± 0.9	26.2	0.93 ± 0.07	3.91	51	–
CN[C@@H]1CC[C@]2(C)[C@H]3CC[C@]4(C)[C@@H]([C@H](C)N(C)C)CC[C@H]4[C@@H]3CC[C@H]2[C@@H]1OC(=O)C=C(C)C [Compound 10, Pachysandrine D]	6.5 µg/mL and 9.5 µM	9	0.69 ± 0.03	0.95	0.66 ± 0.13	1.01	10	IC50 [2, 8]: 1.01 µM; IC50 ([3]; values in brackets, calculated with the molecular masses of the corresponding salts, read-out: IC50 Pf (converted)): 0.97 µM
O=C(O)C(F)(F)F [Trifluoroacetate, reference compound]	–	–	–	–	–	–	–	IC50 Tbr [2, 10]: >100 µg/mL; IC50 Pf [3, 10]: >100 µg/mL
CN[C@@H](C)[C@H]1CC[C@H]2[C@@H]3CC=C4C[C@@H](N(C)C)CC[C@]4(C)[C@H]3CC[C@]12C [Compound 2, 5,6-Dehydro-desacyl-epipachysamine A]	19 µg/mL and 33 µM	10	1.9 ± 0.2	3.2	0.898 ± 0.002	1.53	21	–
CN[C@@H](C)[C@H]1CC[C@H]2[C@@H]3CC[C@H]4C[C@@H](N(C)C)CC[C@]4(C)[C@H]3CC[C@]12C [Compound 3, Desacyl-epipachysamine A]	18 µg/mL and 30 µM	–	2 ± 0.2	3.5	0.85 ± 0.03	1.44	21	–
CN[C@@H]1CC[C@@]2(C)[C@@H](CC[C@@H]3[C@@H]2CC[C@]2(C)[C@@H]([C@H](C)N(C)C)CC[C@@H]32)C1 [Compound 8, Pachysamine A]	10.4 µg/mL and 17.7 µM	13	0.8 ± 0.1	1.3	1.82 ± 0.06	3.09	6	–
CC(C)=CC(=O)N[C@@H]1[C@H](O)[C@@H]2CC[C@@H]3[C@H](CC[C@]4(C)[C@@H]([C@H](C)N(C)C)CC[C@@H]34)[C@@]2(C)C[C@@H]1O [Compound 16, 4β-Hydroxy-hookerianamide N]	45 µg/mL and 79 µM	6	8.1 ± 0.6	14.1	6.1 ± 0.5	10.6	7	–
Nc1nc(N)nc(Nc2ccc([As]3SCC(CO)S3)cc2)n1 (stereo not drawn) [Melarsoprol, reference compound]	–	–	–	–	–	–	–	IC50 ([2]; Trypanosoma brucei, read-out: IC50 Tbr): 0.007 ± 0.002 µg/mL; IC50 ([2]; Trypanosoma brucei, read-out: IC50 Tbr [µg/mL]): 0.007 ± 0.002 µg/mL
